From ChEMBL document CHEMBL2380203, “Structure-activity relationship of cytochrome bc1 reductase inhibitor broad spectrum antifungal ilicicolin H” (Bioorg Med Chem Lett, 2013)
≈ marks a conversion by molar mass, not a printed value.

Experiments:
[1] = Inhibition of Candida albicans MY1055 NADH:cytochrome bc1 reductase
Candida albicans = test: Antifungal activity against Candida albicans MY1055 assessed as growth inhibition after 24 hrs by liquid microdilution assay; format: functional; conditions: MY1055, 24 h
[2] = Inhibition of rat liver NADH:cytochrome bc1 reductase

## C/C=C/[C@@H]1[C@H]2C[C@@H](C)CC[C@@H]2C(C)=C[C@H]1C(=O)c1c(O)c(-c2ccc(OC(=O)Nc3ccc(Br)cc3)cc2)c[nH]c1=O
[1]
  IC50: 0.2 µg/mL (≈ 0.317 µM)
Candida albicans
  MIC: 5 µg/mL (≈ 7.92 µM)
[2]
  IC50: 1 µg/mL (≈ 1.58 µM)

## C=CCn1cc(-c2ccc(O)cc2)c(O)c(C(=O)[C@@H]2C=C(C)[C@H]3CC[C@H](C)C[C@@H]3[C@H]2/C=C/C)c1=O
[1]
  IC50: 0.008 µg/mL (≈ 0.0169 µM)
Candida albicans
  MIC: 1 µg/mL (≈ 2.11 µM)
[2]
  IC50: 1 µg/mL (≈ 2.11 µM)

## C/C=C/[C@@H]1[C@H]2C[C@@H](C)CC[C@@H]2C(C)=C[C@H]1C(=O)c1c(O)c(-c2ccc(OC(=O)CCCNC(=O)OC(C)(C)C)cc2)c[nH]c1=O
[1]
  IC50: 0.004 µg/mL (≈ 0.00646 µM)
Candida albicans
  MIC: 0.125 µg/mL (≈ 0.202 µM)
[2]
  IC50: > 1 µg/mL

## C/C=C/[C@@H]1[C@H]2C[C@@H](C)CC[C@@H]2[C@](C)(Br)[C@H]2Oc3ncc(-c4ccc(O)c(Br)c4)c(O)c3C(=O)[C@@H]12
[1]
  IC50: > 1 µg/mL
Candida albicans
  MIC: > 5 µg/mL
[2]
  IC50: 1 µg/mL (≈ 1.69 µM)

## C/C=C/[C@@H]1[C@H]2C[C@@H](COC(C)=O)CC[C@@H]2C(C)=C[C@H]1C(=O)c1c(O)c(-c2ccc(O)cc2)c[nH]c1=O
[1]
  IC50: 0.0021 µg/mL (≈ 0.00427 µM)
Candida albicans
  MIC: 0.5 µg/mL (≈ 1.02 µM)
[2]
  IC50: > 1.6 µg/mL

## C/C=C/[C@@H]1[C@H]2C[C@@H](C)CC[C@@H]2C(C)=C[C@H]1C(=O)c1c(O)c(-c2ccc(OC)cc2)c[nH]c1=O
[1]
  IC50: 0.003 µg/mL (≈ 0.0067 µM)
Candida albicans
  MIC: 0.25 µg/mL (≈ 0.559 µM)
[2]
  IC50: 0.2 µg/mL (≈ 0.447 µM)

## C/C=C/[C@@H]1[C@H]2C[C@@H](C)CC[C@@H]2C(C)=C[C@H]1C(=O)c1c(O)c(-c2ccc(OC(=O)C3CCCC3)cc2)c[nH]c1=O
[1]
  IC50: 0.01 µg/mL (≈ 0.0189 µM)
Candida albicans
  MIC: 1 µg/mL (≈ 1.89 µM)
[2]
  IC50: > 0.8 µg/mL

## C/C=C/[C@@H]1[C@H]2C[C@@H](C)CC[C@@H]2[C@](C)(I)[C@H]2Oc3ncc(-c4ccc(O)cc4)c(O)c3C(=O)[C@@H]12
[1]
  IC50: 1 µg/mL (≈ 1.79 µM)
Candida albicans
  MIC: > 5 µg/mL
[2]
  IC50: 1 µg/mL (≈ 1.79 µM)

## C/C=C/[C@@H]1[C@H]2C[C@@H](C)CC[C@@H]2C(C)=C[C@H]1C(=O)c1c(O)c(-c2ccc(OC(=O)/C=C/c3ccsc3)cc2)c[nH]c1=O
[1]
  IC50: 0.5 µg/mL (≈ 0.878 µM)
Candida albicans
  MIC: 1 µg/mL (≈ 1.76 µM)
[2]
  IC50: > 1 µg/mL

## C/C=C/[C@@H]1[C@H]2C[C@@H](C)CC[C@@H]2C(C)=C[C@H]1C(=O)c1c(OC)c(-c2ccc(OC)cc2)cn(C)c1=O
[1]
  IC50: 1 µg/mL (≈ 2.1 µM)
Candida albicans
  MIC: > 1 µg/mL

## C/C=C/[C@@H]1[C@H]2C[C@@H](C)CC[C@@H]2C(C)=C[C@H]1C(=O)c1c(O)c(-c2ccc(OC(=O)c3ccoc3)cc2)c[nH]c1=O
[1]
  IC50: 0.0105 µg/mL (≈ 0.0199 µM)
Candida albicans
  MIC: 0.0625 µg/mL (≈ 0.118 µM)
[2]
  IC50: > 1 µg/mL

## C/C=C/[C@@H]1[C@H]2C[C@@H](C)CC[C@@H]2C(C)=C[C@H]1C(=O)c1c(O)c(-c2ccc(OC(=O)CC)cc2)c[nH]c1=O
[1]
  IC50: 0.00081 µg/mL (≈ 0.00165 µM)
Candida albicans
  MIC: 0.125 µg/mL (≈ 0.255 µM)
[2]
  IC50: > 1.6 µg/mL

## C/C=C/[C@@H]1[C@H]2C[C@@H](CO)CC[C@@H]2C(C)=C[C@H]1C(=O)c1c(O)c(-c2ccc(OC(C)=O)cc2)c[nH]c1=O
[1]
  IC50: 0.16 µg/mL (≈ 0.325 µM)
Candida albicans
  MIC: 0.5 µg/mL (≈ 1.02 µM)
[2]
  IC50: > 0.8 µg/mL

## C/C=C/[C@@H]1[C@H]2C[C@@H](C)CC[C@@H]2C(C)=C[C@H]1C(=O)c1c(O)c(-c2ccc(OC(=O)c3ccsc3)cc2)c[nH]c1=O
[1]
  IC50: 0.005 µg/mL (≈ 0.0092 µM)
Candida albicans
  MIC: 1 µg/mL (≈ 1.84 µM)
[2]
  IC50: > 1 µg/mL

## C/C=C/[C@@H]1[C@H]2C[C@@H](C)CC[C@@H]2C(C)=C[C@H]1C(=O)c1c(O)c(-c2ccc(OC(=O)Cc3ccccc3)cc2)c[nH]c1=O
[1]
  IC50: 0.0005 µg/mL (≈ 0.000906 µM)
Candida albicans
  MIC: 0.25 µg/mL (≈ 0.453 µM)
[2]
  IC50: 1 µg/mL (≈ 1.81 µM)

## C/C=C/[C@@H]1[C@H]2C[C@@H](C)CC[C@@H]2C(C)=C[C@H]1C(=O)c1c(O)c(-c2ccc(OC)cc2)cn(C)c1=O
[1]
  IC50: 0.008 µg/mL (≈ 0.0173 µM)
Candida albicans
  MIC: > 1 µg/mL

## C/C=C/[C@@H]1[C@H]2C[C@@H](COC(=O)CC)CC[C@@H]2C(C)=C[C@H]1C(=O)c1c(O)c(-c2ccc(OC(=O)CC)cc2)c[nH]c1=O
[1]
  IC50: 0.01 µg/mL (≈ 0.0178 µM)
Candida albicans
  MIC: 0.125 µg/mL (≈ 0.223 µM)
[2]
  IC50: > 0.8 µg/mL

## C/C=C/[C@H]1[C@@H]2C(=O)c3c(ncc(-c4ccc(O)cc4)c3O)O[C@@H]2C(C)=C2CC[C@H](C)C[C@@H]21
[1]
  IC50: > 1 µg/mL
Candida albicans
  MIC: > 1 µg/mL

## C/C=C/[C@@H]1[C@H]2C[C@@H](C)CC[C@@H]2C(C)=C[C@H]1C(=O)c1c(O)c(-c2ccc(O)cc2)cn(CC)c1=O
Candida albicans
  MIC: 0.312 µg/mL (≈ 0.676 µM)

## CC1O[C@H]1[C@@H]1[C@H]2C[C@@H](C)CC[C@@H]2[C@](C)(O)[C@H]2Oc3ncc(-c4ccc(O)cc4)c(O)c3C(=O)[C@@H]12 (stereo partly drawn)
[1]
  IC50: > 1 µg/mL
Candida albicans
  MIC: > 5 µg/mL
[2]
  IC50: 1 µg/mL (≈ 2.15 µM)

## C/C=C/[C@@H]1[C@H]2C[C@@H](C)CC[C@@H]2C(C)=C[C@H]1C(=O)c1c(O)c(-c2ccc(OC(=O)c3ccccc3)cc2)c[nH]c1=O
[1]
  IC50: 0.008 µg/mL (≈ 0.0149 µM)
Candida albicans
  MIC: 1 µg/mL (≈ 1.86 µM)
[2]
  IC50: 1 µg/mL (≈ 1.86 µM)

## C/C=C/[C@@H]1[C@H]2C[C@@H](C)CC[C@@H]2C(C)=C[C@H]1C(=O)c1c(O)c(-c2ccc(O)cc2)cn(CC(N)=O)c1=O
[1]
  IC50: 0.04 µg/mL (≈ 0.0815 µM)
Candida albicans
  MIC: 0.031 µg/mL (≈ 0.0632 µM)

## C/C=C/[C@@H]1[C@H]2C[C@@H](C)CC[C@@H]2[C@](C)(I)[C@H]2Oc3ncc(-c4ccc(O)c(I)c4)c(O)c3C(=O)[C@@H]12
Candida albicans
  MIC: > 5 µg/mL

## C/C=C/[C@@H]1[C@H]2C[C@@H](CO)CC[C@@H]2C(C)=C[C@H]1C(=O)c1c(O)c(-c2ccc(O)cc2)c[nH]c1=O
[1]
  IC50: 0.4 µg/mL (≈ 0.89 µM)
Candida albicans
  MIC: 0.25 µg/mL (≈ 0.556 µM)
[2]
  IC50: 0.4 µg/mL (≈ 0.89 µM)

## C/C=C/[C@@H]1[C@H]2C[C@@H](C)CC[C@@H]2C(C)=C[C@H]1C(=O)c1c(O)c(-c2ccc(OC(=O)C3CCCCC3)cc2)c[nH]c1=O
[1]
  IC50: 0.4 µg/mL (≈ 0.736 µM)
Candida albicans
  MIC: > 1 µg/mL
[2]
  IC50: > 1.6 µg/mL

## C/C=C/[C@@H]1[C@H]2C[C@@H](C)CC[C@@H]2C(C)=C[C@H]1C(=O)c1c(O)c(-c2ccc(OCC(=O)O)cc2)cn(CC(=O)O)c1=O
[1]
  IC50: > 1 µg/mL
Candida albicans
  MIC: > 5 µg/mL
[2]
  IC50: 1 µg/mL (≈ 1.82 µM)

## C/C=C/[C@@H]1[C@H]2C[C@@H](C)CC[C@@H]2C(C)=C[C@H]1C(=O)c1c(O)c(-c2ccc(O)cc2)cn(C)c1=O
[1]
  IC50: 0.0016 µg/mL (≈ 0.00357 µM)
Candida albicans
  MIC: 0.25 µg/mL (≈ 0.559 µM)
[2]
  IC50: 0.25 µg/mL (≈ 0.559 µM)

## C/C=C/[C@@H]1[C@H]2C[C@@H](C)CC[C@@H]2[C@](C)(Br)[C@H]2Oc3ncc(-c4ccc(O)c(Br)c4Br)c(O)c3C(=O)[C@@H]12
[1]
  IC50: 1 µg/mL (≈ 1.49 µM)
Candida albicans
  MIC: > 5 µg/mL
[2]
  IC50: 1 µg/mL (≈ 1.49 µM)

## C/C=C/[C@@H]1[C@H]2C[C@@H](C)CC[C@@H]2[C@](C)(O)[C@H]2Oc3ncc(-c4ccc(O)cc4)c(O)c3C(=O)[C@@H]12
[1]
  IC50: > 1 µg/mL
Candida albicans
  MIC: > 5 µg/mL
[2]
  IC50: 1 µg/mL (≈ 2.22 µM)

## C/C=C/[C@@H]1[C@H]2C[C@@H](C)CC[C@@H]2C(C)=C[C@H]1C(=O)c1c(O)c(-c2ccc(OC(=O)C/C=C/c3ccccc3)cc2)c[nH]c1=O
[1]
  IC50: 0.02 µg/mL (≈ 0.0346 µM)
Candida albicans
  MIC: 0.312 µg/mL (≈ 0.54 µM)
[2]
  IC50: 1.6 µg/mL (≈ 2.77 µM)

## C/C=C/[C@@H]1[C@H]2C[C@@H](C)CC[C@@H]2C(C)=C[C@H]1C(=O)c1c(O)c(-c2ccc(O)cc2)cn(CC(=O)OC(C)(C)C)c1=O
[1]
  IC50: > 1.6 µg/mL
Candida albicans
  MIC: > 5 µg/mL
[2]
  IC50: 1.6 µg/mL (≈ 2.92 µM)

## C/C=C/[C@@H]1[C@H]2C[C@@H](C)CC[C@@H]2C(C)=C[C@H]1C(=O)c1c(O)c(-c2ccc(OCC(=O)OC(C)(C)C)cc2)cn(CC(=O)OC(C)(C)C)c1=O
[1]
  IC50: > 1.6 µg/mL
Candida albicans
  MIC: > 5 µg/mL
[2]
  IC50: 1.6 µg/mL (≈ 2.42 µM)

## C/C=C/[C@@H]1[C@H]2C[C@@H](C)CC[C@@H]2[C@](C)(Cl)[C@H]2Oc3ncc(-c4ccc(O)cc4)c(O)c3C(=O)[C@@H]12
[1]
  IC50: 0.2 µg/mL (≈ 0.427 µM)
Candida albicans
  MIC: 5 µg/mL (≈ 10.7 µM)
[2]
  IC50: 1 µg/mL (≈ 2.14 µM)

## C/C=C/[C@@H]1[C@H]2C[C@@H](C)CC[C@@H]2C(C)=C[C@H]1C(=O)c1c(O)c(-c2ccc(OCC#N)cc2)c[nH]c1=O
[1]
  IC50: 0.006 µg/mL (≈ 0.0127 µM)
Candida albicans
  MIC: 0.125 µg/mL (≈ 0.265 µM)
[2]
  IC50: 1 µg/mL (≈ 2.12 µM)

## C/C=C/[C@@H]1[C@H]2C[C@@H](C)CC[C@@H]2C(C)=C[C@H]1C(=O)c1c(OC)ncc(-c2ccc(O)cc2)c1O
[1]
  IC50: 0.02 µg/mL (≈ 0.0447 µM)
Candida albicans
  MIC: > 1 µg/mL
[2]
  IC50: > 1 µg/mL

## C/C=C/[C@@H]1[C@H]2C[C@@H](C)CC[C@@H]2C(C)=C[C@H]1C(=O)c1c(O)c(-c2ccc(OC(=O)CNC(=O)OCC3c4ccccc4-c4ccccc43)cc2)c[nH]c1=O
[1]
  IC50: 0.006 µg/mL (≈ 0.00842 µM)
Candida albicans
  MIC: 0.125 µg/mL (≈ 0.175 µM)
[2]
  IC50: 1 µg/mL (≈ 1.4 µM)

## C/C=C/c1c(C(=O)c2c(O)c(-c3ccc(O)cc3)c[nH]c2=O)cc(C)c2c1C[C@@H](C)CC2
Candida albicans
  MIC: > 1 µg/mL

## C/C=C/[C@@H]1[C@H]2C[C@@H](C)CC[C@@H]2C(C)=C[C@H]1C(=O)c1c(O)c(-c2ccc(OCC#N)cc2)cn(CC#N)c1=O
[1]
  IC50: 0.1 µg/mL (≈ 0.195 µM)
Candida albicans
  MIC: 1 µg/mL (≈ 1.95 µM)
